Experimental data taken from patent US11389456B2, “Compounds and methods for treating oxalate-related diseases” (OxaluRx, Inc., priority 2018, dated 2022).

Legend:
[1] = Stability in human plasma; format: in vitro ADME; details: read-out: Plasma Stability T1/2
In short: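 Pooled human plasma (pH 7.4-8) at 37° C, test compound spiked from a 0.02 mM solution in phosphate buffer with 0.5% BSA. Samples taken at 0, 5, 15, 30, 45 and 60 min, quenched with acetonitrile containing internal standard, and remaining compound measured by LC/MS.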

[2] = molecular target: recombinant full-length human hydroxyacid oxidase 1 (HAO1), the equivalent of hGOX (Homo sapiens (Human), UniProt Q9UJM8); assay: In-vitro human glycolate oxidase (hGOX) assay (Amplex red/HRP fluorescence); format: biochemical
recombinant full-length human hydroxyacid oxidase 1 (HAO1), the equivalent of hGOX, sequence (Q9UJM8 whole entry): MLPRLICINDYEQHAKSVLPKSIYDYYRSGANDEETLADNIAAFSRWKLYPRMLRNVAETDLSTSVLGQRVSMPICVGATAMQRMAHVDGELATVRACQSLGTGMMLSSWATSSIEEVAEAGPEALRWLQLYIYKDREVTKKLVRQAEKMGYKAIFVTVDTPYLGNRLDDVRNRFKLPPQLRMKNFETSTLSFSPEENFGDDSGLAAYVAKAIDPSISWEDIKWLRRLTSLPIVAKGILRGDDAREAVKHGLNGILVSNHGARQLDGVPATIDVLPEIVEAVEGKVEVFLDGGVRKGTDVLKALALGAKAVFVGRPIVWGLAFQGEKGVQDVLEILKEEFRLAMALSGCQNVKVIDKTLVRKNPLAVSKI
Method: Biological Activity Assay: In-Vitro Human Glycolate Oxidase (hGOX) Assay
The in-vitro glycolate oxidase assay was performed using recombinant full-length human hydroxyacid oxidase 1 (HAO1), the equivalent of hGOX. […] Purified HAO1 was dissolved in assay buffer consisting of 10 mM NaCl, 110 mM KCl, 2 mM MgCl2, 50 mM HEPES (pH 7.4) and 0.01% Triton™ X-100.

[3] = tested on: CD1 mice administered 1% ethylene glycol; assay: Mouse ethylene glycol model of hyperoxaluria, urinary oxalate; format: in vivo; details: CD-1 mice, twice-daily oral gavage 50 mg/kg
Method: Mouse Models of Hyperoxaluria for Determining In Vivo Efficacy of hGOX Inhibitors
Male CD1 mice, 6-8 weeks of age (Charles River Labs, Wilmington, Mass.) were administered 1% ethylene glycol ad libitum their drinking water for 14 days. The mice were housed in individual cages, fed ad libitum and 24-h urine collections were initiated on days 1, 5, 9 and 14 using a 15-rack metabolic cage system equipped with a CCS2000 chiller system (Hatteras Instruments, Cary, N.C.) to maintain the samples at 4° C. during collection. Hydrochloric acid (100 μL of 6N) added to the collection vials to acidify the samples and prevent degradation of oxalate before evaluation.
Urine samples were maintained at 4° C. and urinary oxalate concentrations were determined within 24 hours of sample collection using a Trinity Biotech oxalate assay kit (Catalog #591-D). The assay was an enzymatic method based on the oxidation of oxalate by oxalate oxidase followed by measurement of hydrogen peroxide (H2O2) produced during the peroxidase-catalyzed reaction. Briefly, a 1-mL aliquot of each sample was diluted with an equal volume of assay diluent to bring the pH to between 5.0 and 7.0, then placed into purifier tubes (provided in the kit) and mixed for 5 min. The tubes were centrifuged for 5 min at 2000 rpm (1500×g) and the supernatants collected for the oxalate assay. The procedure was specific for oxalate with no special equipment and was easily adaptable for clinical automated analyzers. Each assay included a standard curve prepared with a standardized oxalate control sample (included in the kit) and internal assay control samples for both a normal (0.2-0.3 mmol/L) and elevated (0.86-1.21 mmol/L) level of oxalate.
To evaluate in vivo efficacy, mice were dosed by once-daily oral gavage of compound I-002 in an appropriate vehicle (e.g., phosphate-buffered saline, pH 7.4) at a dosage of 100 mg/kg. […]
The effect of example I-001 in the ethylene glycol model using CD-1 mice was evaluated by twice-daily, oral gavage dosing at 50 mg/kg for 6 days (days 5-11). […]

For `O=C(O)c1nn[nH]c1Sc1ccc(Cl)cc1` [Example I-001, 5-((4-chlorophenyl)thio)-1H-1,2,3-triazole-4-carboxylic acid], the half-life at 2 μM [1] was 42.3 min, the IC50 [2] was 110 nM and the “decrease of total urinary oxalate values (μmole/24 hr/mL)” value ([3]; 24-hour urine collection after 3 days of drug treatment) was 24%. The “decrease of total urinary oxalate values (μmole/24 hr/mL)” value ([3]; 24-hour urine collection after 6 days of drug treatment) was 32%.
